One assay deals with Integrin alpha-V/beta-3 (Homo sapiens, UniProt P05106+P06756). The assay is described as follows: Inhibition of Kistrin binding to integrin alphaV-beta3. The class given is protein-complex assay.
The target in assay [1] is Integrin alpha-IIb/beta-3 (Homo sapiens, UniProt P05106+P08514). The assay is described as follows: Inhibition of fibrinogen binding to integrin alphaIIb-beta3. The class given is protein-complex assay.
Sequence of Integrin alpha-IIb/beta-3 (P05106 27-788 limits assumed): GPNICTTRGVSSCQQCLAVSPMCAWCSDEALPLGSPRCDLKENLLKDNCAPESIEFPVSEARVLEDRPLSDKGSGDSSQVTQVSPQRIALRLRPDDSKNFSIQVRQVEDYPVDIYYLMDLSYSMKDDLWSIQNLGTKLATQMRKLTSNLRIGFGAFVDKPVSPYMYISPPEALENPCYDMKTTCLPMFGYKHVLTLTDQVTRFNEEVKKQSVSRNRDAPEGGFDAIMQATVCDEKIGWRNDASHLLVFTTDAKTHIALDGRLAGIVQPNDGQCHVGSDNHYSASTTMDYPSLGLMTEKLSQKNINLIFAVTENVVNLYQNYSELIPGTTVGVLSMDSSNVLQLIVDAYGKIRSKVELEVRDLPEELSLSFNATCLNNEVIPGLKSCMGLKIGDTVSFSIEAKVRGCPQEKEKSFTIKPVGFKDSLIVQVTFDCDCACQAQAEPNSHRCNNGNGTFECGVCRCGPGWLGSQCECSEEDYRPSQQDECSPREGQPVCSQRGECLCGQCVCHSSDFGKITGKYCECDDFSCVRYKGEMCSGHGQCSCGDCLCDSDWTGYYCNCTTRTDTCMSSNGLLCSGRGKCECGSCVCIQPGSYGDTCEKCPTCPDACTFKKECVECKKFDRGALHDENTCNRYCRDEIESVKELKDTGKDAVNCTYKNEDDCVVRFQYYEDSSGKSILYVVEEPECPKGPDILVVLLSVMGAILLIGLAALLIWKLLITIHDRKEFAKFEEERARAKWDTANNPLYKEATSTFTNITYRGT
Sequence of Integrin alpha-IIb/beta-3 (P08514 32-887 limits assumed): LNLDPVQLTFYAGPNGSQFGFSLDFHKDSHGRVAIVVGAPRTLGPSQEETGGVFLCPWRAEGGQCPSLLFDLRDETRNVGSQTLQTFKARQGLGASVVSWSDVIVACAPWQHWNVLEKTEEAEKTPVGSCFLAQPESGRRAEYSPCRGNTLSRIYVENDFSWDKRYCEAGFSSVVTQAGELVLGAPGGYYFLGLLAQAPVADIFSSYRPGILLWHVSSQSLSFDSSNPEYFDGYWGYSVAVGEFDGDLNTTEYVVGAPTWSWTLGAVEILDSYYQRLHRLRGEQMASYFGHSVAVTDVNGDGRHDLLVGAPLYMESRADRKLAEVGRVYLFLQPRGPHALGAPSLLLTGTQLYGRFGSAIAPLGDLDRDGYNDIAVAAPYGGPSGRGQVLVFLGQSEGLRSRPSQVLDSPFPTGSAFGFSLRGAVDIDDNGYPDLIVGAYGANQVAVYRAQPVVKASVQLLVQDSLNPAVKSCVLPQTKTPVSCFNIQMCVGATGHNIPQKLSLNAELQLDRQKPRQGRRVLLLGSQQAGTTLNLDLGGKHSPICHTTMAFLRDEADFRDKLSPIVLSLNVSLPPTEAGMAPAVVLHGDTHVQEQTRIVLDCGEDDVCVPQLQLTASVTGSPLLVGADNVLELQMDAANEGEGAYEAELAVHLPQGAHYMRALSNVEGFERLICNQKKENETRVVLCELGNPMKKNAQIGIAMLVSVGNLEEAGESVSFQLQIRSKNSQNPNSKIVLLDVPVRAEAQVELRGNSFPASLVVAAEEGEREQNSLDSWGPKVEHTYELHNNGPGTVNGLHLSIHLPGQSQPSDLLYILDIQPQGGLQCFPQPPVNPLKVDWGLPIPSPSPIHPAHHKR
Sequence of Integrin alpha-IIb/beta-3 (P08514 891-1039 limits assumed): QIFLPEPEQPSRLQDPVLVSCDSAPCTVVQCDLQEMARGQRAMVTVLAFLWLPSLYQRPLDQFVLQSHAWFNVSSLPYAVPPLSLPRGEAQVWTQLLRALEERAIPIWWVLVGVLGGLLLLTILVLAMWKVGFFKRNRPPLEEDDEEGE

Sequence of Integrin alpha-V/beta-3 (P05106 27-788 limits assumed): as the sequence (P05106 27-788 limits assumed) above
Sequence of Integrin alpha-V/beta-3 (P06756 31-889 limits assumed): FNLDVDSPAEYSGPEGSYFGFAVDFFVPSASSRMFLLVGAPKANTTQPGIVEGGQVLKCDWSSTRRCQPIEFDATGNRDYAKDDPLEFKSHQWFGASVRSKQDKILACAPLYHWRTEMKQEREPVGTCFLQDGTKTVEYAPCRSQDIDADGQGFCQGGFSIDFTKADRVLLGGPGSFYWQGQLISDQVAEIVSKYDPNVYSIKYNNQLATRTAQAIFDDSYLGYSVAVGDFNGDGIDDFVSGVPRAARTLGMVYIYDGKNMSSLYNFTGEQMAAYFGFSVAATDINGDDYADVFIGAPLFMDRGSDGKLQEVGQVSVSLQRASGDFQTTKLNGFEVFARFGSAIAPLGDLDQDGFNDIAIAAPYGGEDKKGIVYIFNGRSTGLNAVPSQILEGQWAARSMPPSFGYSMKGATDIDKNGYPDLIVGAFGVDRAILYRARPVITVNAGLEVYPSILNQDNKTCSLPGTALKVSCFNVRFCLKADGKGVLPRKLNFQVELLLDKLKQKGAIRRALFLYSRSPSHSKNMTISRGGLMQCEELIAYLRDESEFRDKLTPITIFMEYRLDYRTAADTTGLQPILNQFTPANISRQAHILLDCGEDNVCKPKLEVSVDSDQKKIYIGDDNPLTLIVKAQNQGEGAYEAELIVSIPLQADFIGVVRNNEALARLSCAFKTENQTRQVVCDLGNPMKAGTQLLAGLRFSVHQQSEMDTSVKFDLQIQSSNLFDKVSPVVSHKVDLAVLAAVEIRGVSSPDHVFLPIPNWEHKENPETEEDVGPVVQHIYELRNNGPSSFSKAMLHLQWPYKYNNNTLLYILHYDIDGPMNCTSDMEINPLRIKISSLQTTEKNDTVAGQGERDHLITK
Sequence of Integrin alpha-V/beta-3 (P06756 891-1048 limits assumed): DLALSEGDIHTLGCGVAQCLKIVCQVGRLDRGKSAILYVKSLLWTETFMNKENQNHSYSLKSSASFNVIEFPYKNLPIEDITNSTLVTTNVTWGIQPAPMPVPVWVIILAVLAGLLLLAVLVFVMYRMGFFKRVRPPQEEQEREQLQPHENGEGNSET

As a reminder, the IC50 is the midpoint of a concentration-inhibition curve. Regarding `N=C(N)NCCCC[C@@H]1NC(=O)N(CC(=O)NCC(NC(=O)OCc2ccccc2)C(=O)O)C1=O` (some centres not stated), the figures for the IC50 (on Integrin alpha-V/beta-3; in assay [1]) were 200 nM and 850 nM, respectively.
Turning to `O=C(CN1C(=O)N[C@@H](CCCNc2nc3ccccc3[nH]2)C1=O)NCC(NC(=O)OCc1ccccc1)C(=O)O` (some centres not stated), the IC50 at Integrin alpha-V/beta-3 was 40 nM; in assay [1], greater than 10000 nM.
Take `O=C(CN1C(=O)N[C@@H](CCCNc2ncccn2)C1=O)NCC(NC(=O)OCc1ccccc1)C(=O)O` (some centres not stated): the IC50 on Integrin alpha-V/beta-3 was 1660 nM; in assay [1], greater than 10000 nM.
`CCCCS(=O)(=O)NC(CNC(=O)CN1C(=O)N[C@@H](CCCN=C(N)N)C1=O)C(=O)O` (some centres not stated): the IC50 turned out to be 760 nM at Integrin alpha-V/beta-3 and 350 nM in assay [1].
On the same counts, the results for `O=C(CN1C(=O)N[C@@H](CC(=O)NNC2=NCCN2)C1=O)NCC(NC(=O)OCc1ccccc1)C(=O)O` (some centres not stated) are 580 nM and greater than 10000 nM.
The corresponding values for `N=C(N)NCCC[C@@H]1NC(=O)N(CC(=O)NCC(NC(=O)NCc2ccccc2)C(=O)O)C1=O` (some centres not stated) are 570 nM and 180 nM.
As for `N=C(N)NCC[C@@H]1NC(=O)N(CC(=O)NCC(NC(=O)OCc2ccccc2)C(=O)O)C1=O` (some centres not stated), the IC50 worked out at 5000 nM on Integrin alpha-V/beta-3 and 10000 nM in assay [1].
Regarding `O=C(C[C@@H]1NC(=O)N(CC(=O)NCC(NC(=O)OCc2ccccc2)C(=O)O)C1=O)NCc1nc2ccccc2[nH]1` (some centres not stated), the half-maximal inhibitory concentration (IC50) on Integrin alpha-V/beta-3 turned out to be 15000 nM.
In the case of `N=C(N)NCCC[C@@H]1NC(=O)N(CC(=O)NCC(NC(=O)OCc2ccccc2)C(=O)O)C1=O` (some centres not stated), the IC50 at Integrin alpha-V/beta-3 amounted to 80 nM; in assay [1] it was 2400 nM.
`N=C(N)NCCC[C@@H]1NC(=O)N(CC(=O)NCC(NC(=O)CCc2ccccc2)C(=O)O)C1=O` (some centres not stated): the IC50 stood at 350 nM on Integrin alpha-V/beta-3 and 550 nM in assay [1].
The corresponding values for `N=C(N)NCCC[C@@H]1NC(=O)N(CC(=O)NCC(/N=C(\S)NCc2ccccc2)C(=O)O)C1=O` (some centres not stated) are 3000 nM and 10000 nM.
With `N=C(N)NC[C@@H]1NC(=O)N(CC(=O)NCC(NC(=O)OCc2ccccc2)C(=O)O)C1=O` (some centres not stated), the IC50 at Integrin alpha-V/beta-3 was 15000 nM; in assay [1] it was 10000 nM.
On to `N=C(N)NCCC[C@@H]1NC(=O)N(CC(=O)NCC(NC(=O)c2ccc3ccccc3c2)C(=O)O)C1=O` (some centres not stated), for which the IC50 (at Integrin alpha-V/beta-3; in assay [1]) was 200 nM throughout.
With `O=C(CN1C(=O)N[C@@H](CCCNC2=NCCN2)C1=O)NCC(NC(=O)OCc1ccccc1)C(=O)O` (some centres not stated), the IC50 on Integrin alpha-V/beta-3 was 20 nM; in assay [1], greater than 10000 nM.

The values are drawn from ChEMBL document CHEMBL1132762, “RGD mimetics containing a central hydantoin scaffold: alpkha(v)beta3 vs alpha(IIb)beta3 selectivity requirements” (Bioorg Med Chem Lett, 2000).
